In patent US20240165112A1, “THERAPY FOR THE TREATMENT OF CANCER” (Bristol-Myers Squibb Company, priority 2022, published 2024):

Key:
Assay in all cases: 3D clonogenic assay in patient derived organoids
Format in all cases: cell-based, human
[1] = system: LXFE690 organoid, NSCLC (squamous subtype)
Method: (§1) Five tumor cell lines (4T1.2, A549, EMT6, NCI-H460, and HT29) were treated with a range of paclitaxel or 5-FU concentrations in the presence of dimethlylsulfoxide (DMSO), 5 μM Compound 1, or 20 μM Compound 1. Cells were imaged 4 days after treatment and percent confluence was assessed by image quantification. EC50 values for cell confluence were used to assess chemotherapy potency. Eleven patient-derived tumor organoids (MAXFTN449, MAXFTN2990, PAXF1657, PAXF2131, CXF1256, CXF2129, CXF2061, LXFE2478, LXFE690, LXFA677, LXFA644) were seeded in a 3D matrix and treated with a range of paclitaxel, 5-FU, SN38, Gemcitabine, oxaliplatin, and carboplatin concentrations in the presence of DMSO, 5 μM Compound 1, or 20 μM Compound 1. After 8 to 13 days in culture, colonies were stained, imaged, and counted. A dose response curve was generated for chemotherapy alone or chemotherapy in combination with 5 or 20 μM Compound 1. Combination activity was defined as a percentage of the area under the chemotherapy dose response curve (cAUC) for Compound 1 combination groups compared to the cAUC of chemotherapy alone.
(§2) For combination experiments, working stock solutions of all compounds were prepared in DMSO at concentrations of 660-fold the highest test concentration used and stored at −20° C. Platin compounds were prepared freshly on each treatment day. On each day of an experiment, an aliquot of the working stock solutions was used and stored at room temperature prior to and during treatment. First, 1:2 dilutions of 660-fold concentrated working stocks were prepared in DMSO (in case of monotherapy controls), or equal amounts of the compound working stocks were mixed (in case of drug combinations). Then, different dilutions of these 330-fold concentrated solutions were prepared in DMSO to give an 8×2 matrix combination layout with conditions. The DMSO dilutions were further diluted […] into cell culture medium (IMDM, supplemented with 20% (v/v) fetal bovine serum, and 50 μg/mL gentamicin) in an intermediate dilution plate. Finally, 10 μL taken from the intermediate dilution plate were transferred to 140 μL of cells and medium per well of the final assay plate. Thus, the DMSO dilutions used for the mono- and the combination-treatment were diluted 1:660, and the DMSO concentration in the assay was […].
(§3) Tumors were passaged as subcutaneous xenografts in NMRI nu/nu mice. At a tumor volume of 400 to 1000 mm^3, tumor-bearing mice were euthanized, and tumors were collected under sterile conditions without delay. Tumors were mechanically disaggregated and subsequently incubated with an enzyme cocktail consisting of collagenase type IV (41 U/mL), DNase I (125 U/mL), hyaluronidase type III (100 U/mL), and dispase II (1 U/mL) in RPMI 1640 medium at 37° C. for 60 to 120 minutes. Cells were passed through sieves of 100 μm and 40 μm mesh size, and washed with RPMI 1640 medium. The percentage of viable cells was determined in a Neubauer-hemocytometer using trypan blue exclusion. Aliquots of the cells were frozen down and stored in liquid nitrogen vapor phase. On each day of an experiment, a frozen aliquot of tumor cells was thawed and used for preparation of assay plates.
(§4) The clonogenic assay was carried out in a 96 well plate format using ultra low attachment plates. For each test, plates were prepared as follows: each test well contained a layer of semi-solid medium with tumor cells (50 μL), and a second layer of medium supernatant with or without test compound (100 μL). The cell layer consisted of […] to 12.5×10^3 tumor cells per well, which were seeded in 50 μL/well cell culture medium (IMDM, supplemented with 20% (v/v) fetal bovine serum, 50 μg/mL gentamicin, and 0.4% (w/v) agar). After 24 hours, the soft-agar layer was covered with 90 μL of the same culture medium without agar, and 10 μL of control medium or test compound after serial dilution in DMSO for the duration of the experiment (continuous exposure, 100 μL drug overlay).

[2] = system: LXFA644 organoid, NSCLC (adenocarcinoma subtype)
Method: as §1, §2, §3, §4

[3] = system: LXFE2478 organoid, NSCLC (squamous subtype); details: for Combination activity 5 μM Compound 1 (cAUC % reduction): chemotherapy dose titration + 5 μM Compound 1 vs chemotherapy alone
Method: as §1, §2, §3, §4

[4] = system: LXFA677 organoid, NSCLC (adenocarcinoma subtype)
Method: as §1, §2, §3, §4

[5] = system: CXF1256 organoid, colon cancer; details: for Combination activity 5 μM Compound 1 (cAUC % reduction): chemotherapy dose titration + 5 μM Compound 1 vs chemotherapy alone; for Combination activity 20 μM Compound 1 (cAUC % reduction): chemotherapy dose titration + 20 μM Compound 1 vs chemotherapy alone
Method: as §1, §2, §3, §4

[6] = system: CXF2061 organoid, colon cancer; details: for Combination activity 5 μM Compound 1 (cAUC % reduction): chemotherapy dose titration + 5 μM Compound 1 vs chemotherapy alone; for Combination activity 20 μM Compound 1 (cAUC % reduction): chemotherapy dose titration + 20 μM Compound 1 vs chemotherapy alone
Method: as §1, §2, §3, §4

[7] = system: CXF2129 organoid, colon cancer; details: for Combination activity 5 μM Compound 1 (cAUC % reduction): chemotherapy dose titration + 5 μM Compound 1 vs chemotherapy alone; for Combination activity 20 μM Compound 1 (cAUC % reduction): chemotherapy dose titration + 20 μM Compound 1 vs chemotherapy alone
Method: as §1, §2, §3, §4

[8] = system: MAXFTN2990 organoid, breast cancer (triple negative)
Method: as §1, §2, §3, §4

[9] = system: MAXFTN449 organoid, breast cancer (triple negative)
Method: as §1, §2, §3, §4

[10] = chemotherapy dose titration + 5 μM Compound 1 vs chemotherapy alone
[11] = chemotherapy dose titration + 20 μM Compound 1 vs chemotherapy alone

Structure (SMILES) | Combination activity 5 μM Compound 1 (cAUC % reduction) [1, 10] | Combination activity 20 μM Compound 1 (cAUC % reduction) [1, 11] | Combination activity 5 μM Compound 1 (cAUC % reduction) [2, 10] | Combination activity 20 μM Compound 1 (cAUC % reduction) [2, 11] | Combination activity 5 μM Compound 1 (cAUC % reduction) [3] | Combination activity 5 μM Compound 1 (cAUC % reduction) ([3]; listed as gemcitabine) | Combination activity 20 μM Compound 1 (cAUC % reduction) [3, 11] | Combination activity 5 μM Compound 1 (cAUC % reduction) [4, 10] | Combination activity 20 μM Compound 1 (cAUC % reduction) [4, 11] | Combination activity 5 μM Compound 1 (cAUC % reduction) [5] | Combination activity 20 μM Compound 1 (cAUC % reduction) [5] | Combination activity 5 μM Compound 1 (cAUC % reduction) [6] | Combination activity 20 μM Compound 1 (cAUC % reduction) [6] | Combination activity 5 μM Compound 1 (cAUC % reduction) [7] | Combination activity 20 μM Compound 1 (cAUC % reduction) [7] | Combination activity 5 μM Compound 1 (cAUC % reduction) [8, 10] | Combination activity 20 μM Compound 1 (cAUC % reduction) [8, 11] | Combination activity 5 μM Compound 1 (cAUC % reduction) [9, 10] | Combination activity 20 μM Compound 1 (cAUC % reduction) [9, 11]
Nc1ccn([C@@H]2O[C@H](CO)[C@@H](O)C2(F)F)c(=O)n1 [Gemcitabine, gemcitabine] | 59% | 61% | 3% | 20% | 41% | 41% | 30% | 7% | 15% |  |  |  |  |  |  |  |  |  | 
O=C1[O][Pt]2([NH][C@@H]3CCCC[C@H]3[NH]2)[O]C1=O [Oxaliplatin, oxaliplatin] |  |  |  |  |  |  |  |  |  | 70% | 63% | 13% | −18% | 37% | 9% |  |  |  | 
CCc1c2c(nc3ccc(O)cc13)-c1cc3c(c(=O)n1C2)COC(=O)[C@]3(O)CC [SN38] |  |  |  |  |  |  |  |  |  | 90% | 91% | 22% | 26% | 44% | 33% | 57% | 74% | 58% | 46%
